Where a name gives a salt, the structure may show the parent alone.
Legend:
Format in all cases: in vivo
transgenic sugar beet [1] = experiment: Damage to transgenic sugar beet, field trial (Table 4); conditions: application in 3-leaf stage
Procedure: (§1) Transgenic sugar beet plants with resistance to one or more herbicides (A) were grown together with typical weed plants in the open in 2×5 m plots under natural field conditions; alternatively, the weed population established naturally while the sugar beet plants grew. Treatment with the compositions according to the invention and, for control purposes, with separate application of the active ingredients of the components alone, was carried out under standard conditions with a plot sprayer at an application rate of 200-300 liters of water per hectare in parallel trials in accordance with the scheme of Table 1, i.e. pre-sowing/pre-emergence, post-sowing/pre-emergence or post-emergence at the early, medium or late stage.
(§2) At 2, 4, 6 and 8 week intervals after application, the herbicidal activity of the active ingredients or active ingredient mixtures were scored visually by comparing the treated plots with untreated control plots. Damage and development of all aerial plant organs was recorded. The scoring was done using a percentage scale (100% activity=all plants dead, 50% activity=50% of the plants and green plant organs dead, 0% activity=no discernible effect=like control plot). The score values of in each case 4 plots were averaged.
(§3) In contrast, the sugar beet plants suffered no, or only negligible, damage as a consequence of the treatment with the herbicidal compositions.

Avena fatua = experiment: Herbicidal action and selectivity in sugar beet crop, field trial (Table 5); conditions: application in the 3-5-leaf stage, scoring 4 weeks after application
Procedure: as §1, §2, §3

transgenic sugar beet [2] = experiment: Damage to transgenic sugar beet, field trial (Table 5); conditions: application in the 3-5-leaf stage
Procedure: as §1, §2, §3

transgenic sugar beet [3] = experiment: Damage to transgenic sugar beet - field trial (Table 2); conditions: application in 2-4-leaf stage
Procedure: as §1, §2, §3

Galium aparine [4] = experiment: Herbicidal action, field trial (Table 6); conditions: application in the 3-5-leaf stage, scoring 4 weeks after application
Procedure: as §1, §2, §3

Galium aparine [5] = experiment: Herbicidal action in sugar beet crop, greenhouse experiment (Table 3); conditions: application in the 4-5-leaf stage, scoring 3 weeks after application
Source text: Seeds or rhizomes of monocotyledonous and dicotyledonous weeds are placed in sandy loam soil in cardboard pots, covered with soil and grown in the greenhouse under good growth conditions. […] The compositions according to the invention, which are formulated as wettable powders or as emulsion concentrates, are sprayed at various dosages onto the green plant organs at an application rate of 600 to 800 l of water per ha (converted). After the experimental plants have remained in the greenhouse for approx. 3 to 4 weeks under optimal growth conditions, the effect of the preparations is scored visually in comparison with untreated controls. The compositions according to the invention also have a good herbicidal activity against a broad spectrum of economically important grass weeds and broad-leaved weeds when applied post-emergence.
In this context, activities of the combinations according to the invention are frequently observed which exceed the formal total of the activities when the herbicides are applied individually. The observed values show, at suitably low dosages, an activity of the combinations which exceed Colby's expected values (cf. scoring in Example 1).

Amaranthus retroflexus = experiment: Herbicidal action, field trial, sequential treatment (Table 8); conditions: dose 200 g A.S./ha; post-emergence at the 2-3-leaf stage; scoring 22 days after application
Procedure: as §1
(§4) […] Damage and development of all aerial plant organs was recorded. The scoring was done using a percentage scale (100% activity=all plants dead, 50% activity=50% of the plants and green plant organs dead, 0% activity=no discernible effect=like control plot). The score values of in each case 4 plots were averaged.
as §3

Setaria viridis = experiment: as above; conditions: dose 200 g A.S./ha; post-emergence at the 2-3-leaf stage; scoring 22 days after application
Procedure: as §1, §4, §3

transgenic sugar beet [6] = experiment: Damage to transgenic sugar beet, greenhouse experiment (Table 3); set-up: scale not given here; conditions: application in the 4-5-leaf stage
Galium aparine [7] = experiment: Herbicidal action, field trial (Table 7); conditions: application in the 4-5-leaf stage, scoring 26 days after application
Procedure: as §1, §4, §3

Structure (SMILES): CCCC(=NOCC)C1=C(O)CC(C2CCCSC2)CC1=O (centres unmarked) [(B4.2), 2-(1-ethoxyiminobuytl)-3-hydroxy-5-thian-3-ylcyclohex-2-enone]
- Damage to transgenic sugar beet (transgenic sugar beet [1]; dose 62.5 g A.S./ha): 0
- Damage to transgenic sugar beet (transgenic sugar beet [1]; dose 125 g A.S./ha): 0
- Damage to transgenic sugar beet (transgenic sugar beet [1]; dose 250 g A.S./ha): 0

Structure (SMILES): COC(=O)[C@@H](C)Oc1ccc(Oc2ncc(C(F)(F)F)cc2Cl)cc1 [(B3.4), haloxyfop-P-methyl]
- Herbicidal action in % against Avena fatua (Avena fatua; dose 15 g A.S./ha): 20%
- Herbicidal action in % against Avena fatua (Avena fatua; dose 30 g A.S./ha): 63%
- Damage to transgenic sugar beet (transgenic sugar beet [2]; dose 15 g A.S./ha): 0
- Damage to transgenic sugar beet (transgenic sugar beet [2]; dose 30 g A.S./ha): 0

Structure (SMILES): CP(=O)(O)CCC(N)C(=O)O (centres unmarked) [(A1.2), glufosinate monoammonium salt]
- Damage to transgenic sugar beet (transgenic sugar beet [3]; dose 37.5 g A.S./ha): 0
- Damage to transgenic sugar beet (transgenic sugar beet [3]; dose 75 g A.S./ha): 0
- Damage to transgenic sugar beet (transgenic sugar beet [3]; dose 150 g A.S./ha): 0
- Damage to transgenic sugar beet (transgenic sugar beet [3]; dose 300 g A.S./ha): 0
- Damage to transgenic sugar beet (transgenic sugar beet [1]; dose 0 g A.S./ha): 0
- Damage to transgenic sugar beet (transgenic sugar beet [1]; dose 10 g A.S./ha): 0
- Damage to transgenic sugar beet (transgenic sugar beet [1]; dose 65 g A.S./ha): 0
- Herbicidal action in % against Galium aparine (Galium aparine [4]; dose 250 g A.S./ha): 20%
- Herbicidal action in % against Galium aparine (Galium aparine [4]; dose 300 g A.S./ha): 40%
- Herbicidal action in % against Galium aparine (Galium aparine [4]; dose 600 g A.S./ha): 85%
- Herbicidal action in % against Galium aparine (Galium aparine [5]; dose 125 g A.S./ha): 45%
- Herbicidal action in % against Galium aparine (Galium aparine [5]; dose 250 g A.S./ha): 60%
- Herbicidal action in % against Galium aparine (Galium aparine [5]; dose 500 g A.S./ha): 85%
- Herbicidal action in % against Amaranthus retroflexus (Amaranthus retroflexus): 55%
- Herbicidal action in % against Setaria viridis (Setaria viridis): 60%
- Damage to transgenic sugar beet (transgenic sugar beet [2]; dose 150 g A.S./ha): 0
- Damage to transgenic sugar beet (transgenic sugar beet [2]; dose 300 g A.S./ha): 0
- Damage to transgenic sugar beet (transgenic sugar beet [2]; dose 600 g A.S./ha): 0
- Damage to transgenic sugar beet (transgenic sugar beet [6]; dose 125 g A.S./ha): 0
- Damage to transgenic sugar beet (transgenic sugar beet [6]; dose 250 g A.S./ha): 0
- Damage to transgenic sugar beet (transgenic sugar beet [6]; dose 500 g A.S./ha): 0

Structure (SMILES): CCOC(=O)C(C)Oc1ccc(Oc2nc3ccc(Cl)cc3o2)cc1 (racemic) [(B3.2), fenoxaprop-ethyl (rac.)]
- Damage to transgenic sugar beet (transgenic sugar beet [2]; dose 15 g A.S./ha): 0
- Damage to transgenic sugar beet (transgenic sugar beet [2]; dose 30 g A.S./ha): 0
- Damage to transgenic sugar beet (transgenic sugar beet [2]; dose 60 g A.S./ha): 0

Structure (SMILES): O=C(O)c1nc(Cl)ccc1Cl [(B2.4), 3,6-dichloropyridine-2-carboxylic acid]
- Damage to transgenic sugar beet (transgenic sugar beet [6]; dose 50 g A.S./ha): 0
- Damage to transgenic sugar beet (transgenic sugar beet [6]; dose 100 g A.S./ha): 0
- Damage to transgenic sugar beet (transgenic sugar beet [6]; dose 200 g A.S./ha): 0

Structure (SMILES): CCC/C(=N\OCC)C1=C(O)CC(CC(C)SCC)CC1=O (centres unmarked) [(B4.1), (E,Z)-2-(1-ethoxyiminobutyl)-5-[2-(ethylthio)propyl]-3-hydroxycyclohex-2-enone]
- Damage to transgenic sugar beet (transgenic sugar beet [1]; dose 105 g A.S./ha): 0
- Damage to transgenic sugar beet (transgenic sugar beet [1]; dose 210 g A.S./ha): 0
- Damage to transgenic sugar beet (transgenic sugar beet [1]; dose 315 g A.S./ha): 0

Structure (SMILES): Cc1nnc(-c2ccccc2)c(=O)n1N [(B1.4), 4-amino-4,5-dihydro-3-methyl-6-phenyl-1,2,4-triazin-5-one]
- Damage to transgenic sugar beet (transgenic sugar beet [6]; dose 750 g A.S./ha): 0
- Damage to transgenic sugar beet (transgenic sugar beet [6]; dose 1500 g A.S./ha): 0
- Damage to transgenic sugar beet (transgenic sugar beet [6]; dose 3000 g A.S./ha): 0

Structure (SMILES): CC(C)N.O=C(O)CNCP(=O)(O)O [(A2.2), monoisopropylammonium salt of glyphosate]
- Herbicidal action in % against Galium aparine (Galium aparine [7]; dose 125 g A.S./ha): 10%
- Herbicidal action in % against Galium aparine (Galium aparine [7]; dose 250 g A.S./ha): 40%
- Herbicidal action in % against Galium aparine (Galium aparine [7]; dose 500 g A.S./ha): 60%
- Herbicidal action in % against Galium aparine (Galium aparine [7]; dose 1000 g A.S./ha): 85%

Structure (SMILES): COC(=O)Nc1cccc(NC(=O)Oc2cccc(C)c2)c1 [(B2.2), 3-methylphenyl N-[3-(methoxycarbonylamino)phenyl]carbamate]
- Herbicidal action in % against Galium aparine (Galium aparine [7]; dose 500 g A.S./ha): 20%
- Herbicidal action in % against Galium aparine (Galium aparine [7]; dose 1000 g A.S./ha): 30%
- Herbicidal action in % against Galium aparine (Galium aparine [7]; dose 2000 g A.S./ha): 30%
- Herbicidal action in % against Galium aparine (Galium aparine [5]; dose 500 g A.S./ha): 20%
- Herbicidal action in % against Galium aparine (Galium aparine [5]; dose 1000 g A.S./ha): 30%
- Herbicidal action in % against Galium aparine (Galium aparine [5]; dose 2000 g A.S./ha): 30%
- Damage to transgenic sugar beet (transgenic sugar beet [6]; dose 500 g A.S./ha): 0
- Damage to transgenic sugar beet (transgenic sugar beet [6]; dose 1000 g A.S./ha): 0
- Damage to transgenic sugar beet (transgenic sugar beet [6]; dose 2000 g A.S./ha): 0

From patent US8530386B2, “Herbicidal compositions for tolerant or resistant sugar beet crops” (Bayer Intellectual Property GmbH, priority 1998, dated 2013)
